Test results from ChEMBL document CHEMBL5338757, “Phototunable Cell Killing by Photochromic Diarylethene of Thiazoyl and Thienyl Derivatives” (J Med Chem, 2023).
Blank lines part the entries; values can stand above or below the compound they belong to. Active and inactive are the calls of the source. No cut-off for these calls is given here.

Columns and labels:
DNA [1] = experiment: Binding affinity to DNA (unknown origin) upto 25 uM incubated for 24 hrs in presence of ethidium bromide by […]; type: nucleic-acid assay
DNA [2] = experiment: Binding affinity to DNA (unknown origin) assessed as redshift in absorption maxima at 15 uM with […] blue light irradiation incubated for 24 hrs by fluorescence based assay; type: nucleic-acid assay
DNA [3] = experiment: Binding affinity to DNA (unknown origin) at 15 uM with 436 nm blue light irradiation incubated for 24 hrs by fluorescence based assay; type: nucleic-acid assay
HeLa [4] = experiment: Phototoxicity against human HeLa cells assessed as cell death at 0.05 ppm incubated for 18 hrs followed by medium replacement and 436 nm blue light irradiation for 2 mins and measured after 2 hrs by microscopic analysis; type: functional, cell-based
HeLa [5] = experiment: Phototoxicity against human HeLa cells assessed as BAX activation at 1 ppm with 365 and 436 nm light irradiation by Western blot analysis; type: functional, cell-based
HeLa [6] = experiment: Phototoxicity against human HeLa cells assessed as ATM kinase activation at 1 ppm with 365 and 436 nm light irradiation by Western blot analysis; type: functional, cell-based
HeLa [7] = experiment: Phototoxicity against human HeLa cells assessed as BAK activation at 1 ppm with 365 and 436 nm light irradiation by Western blot analysis; type: functional, cell-based
HeLa [8] = experiment: Phototoxicity against human HeLa cells assessed as cell death at 0.02 to 5 ppm preincubated for 18 hrs under dark condition followed by medium replacement and 436 nm blue light irradiation for 2 mins and measured after 2 hrs by microscopic analysis; type: functional, cell-based; details: dose 0.02-5 ppm, time 20.03 hrs
HeLa [9] = experiment: Phototoxicity against human HeLa cells assessed as cell death at 0.5 ppm preincubated for 1 day followed by UV irradiation for 20 sec; type: functional, cell-based; details: time 86420.0 sec
DNA [10] = experiment: Binding affinity to DNA (unknown origin) in aqueous media at 15 uM at 436 nm blue light irradiation incubated for 24 hrs by fluorescence based assay; type: nucleic-acid assay
DNA [11] = experiment: Binding affinity to DNA (unknown origin) in aqueous media at 15 uM with > 546 nm blue light irradiation incubated for 24 hrs by CD spectra analysis; type: nucleic-acid assay
DNA [12] = experiment: Binding affinity to DNA (unknown origin) in aqueous media at 15 uM with 436 nm blue light irradiation incubated for 24 hrs by CD spectra analysis; type: nucleic-acid assay
HeLa [13] = experiment: Phototoxicity against human HeLa cells assessed as cleaved caspase-3 activation at 1 ppm with 365 and 436 nm light irradiation by Western blot analysis; type: functional, cell-based; details: time 18.0 hrs
HeLa [14] = experiment: Phototoxicity against human HeLa cells assessed as gamma-H2AX activation at 1 ppm with 365 and 436 nm light irradiation by Western blot analysis; type: functional, cell-based
HeLa [15] = experiment: Phototoxicity against human HeLa cells assessed as cell death at 5 ppm incubated for 18 hrs followed by medium replacement and 436 nm blue light irradiation for 2 mins and measured after 2 hrs by microscopic analysis; type: functional, cell-based; details: time 20.03 hrs
HeLa [16] = experiment: Phototoxicity against human HeLa cells assessed as CHK2 activation at 0.1 ppm with 436 nm blue light irradiation by Western blot analysis; type: functional, cell-based; details: time 20.03 hrs
HeLa [17] = experiment: Phototoxicity against human HeLa cells assessed as ATM kinase activation at 0.1 ppm with 436 nm blue light irradiation by Western blot analysis; type: functional, cell-based; details: time 20.03 hrs
HeLa [18] = experiment: Phototoxicity against human HeLa cells assessed as gamma-H2AX activation at 0.1 ppm with 436 nm blue light irradiation by Western blot analysis; type: functional, cell-based; details: time 20.03 hrs
HeLa [19] = experiment: Phototoxicity against human HeLa cells assessed as cell rounding at 1 nM preincubated for 18 hrs under dark condition followed by medium replacement and 436 nm blue light irradiation for 2 mins and measured after 2 hrs by microscopic analysis; type: functional, cell-based; details: time 20.03 hrs
HeLa [20] = experiment: Phototoxicity in human HeLa cells assessed as cell damage at 0.2 ppm pre-irradiated with 546 nm green light followed by 436 nm blue light irradiation; type: functional, cell-based
HeLa [21] = experiment: Phototoxicity against human HeLa cells assessed as activation of BAX multiplication at 0.1 ppm with 436 nm blue light irradiation by Western blot analysis; type: functional, cell-based
HeLa [22] = experiment: Phototoxicity in human HeLa cells assessed as cell damage at 0.2 ppm irradiated with 546 nm green light; type: functional, cell-based
HeLa [23] = experiment: Phototoxicity against human HeLa cells assessed as caspase-3 activation at 0.1 ppm with 436 nm blue light irradiation by Western blot analysis; type: functional, cell-based; details: time 20.03 hrs
HeLa [24] = experiment: Phototoxicity against human HeLa cells assessed as CHK1 activation at 0.1 ppm with 436 nm blue light irradiation by Western blot analysis; type: functional, cell-based; details: time 20.03 hrs
HeLa [25] = experiment: Phototoxicity against human HeLa cells assessed as BAX activation at 0.1 ppm with 436 nm blue light irradiation by Western blot analysis; type: functional, cell-based; details: time 20.03 hrs
HeLa [26] = experiment: Phototoxicity against human HeLa cells assessed as BAK activation at 0.1 ppm with 436 nm blue light irradiation by Western blot analysis; type: functional, cell-based; details: time 20.03 hrs
HeLa [27] = experiment: Phototoxicity against human HeLa cells assessed as cell shrinkage at 1 nM preincubated for 18 hrs under dark condition followed by medium replacement and 436 nm blue light irradiation for 2 mins and measured after 2 hrs by microscopic analysis; type: functional, cell-based; details: time 20.03 hrs

Structure (SMILES): CC12C=C(c3ccccc3)SC1=C1C(=C3SC(c4ccccc4)=NC32C)C(F)(F)C(F)(F)C1(F)F (stereo not given)
- Activity (HeLa [4]): Active

Structure (SMILES): Cc1cc(-c2ccccc2)sc1C1=C(c2sc(-c3ccccc3)cc2C)C(F)(F)C(F)(F)C1(F)F
- Activity (HeLa [15]): inactive

Structure (SMILES): Cc1nc(-c2ccccc2)sc1C1=C(c2sc(-c3ccccc3)nc2C)C(F)(F)C(F)(F)C1(F)F
- Activity (HeLa [15]): inactive

Structure (SMILES): CC12C=C(c3ccccc3)SC1=C1C(=C3SC(c4ccccc4)=CC32C)C(F)(F)C(F)(F)C1(F)F (stereo not given)
- Activity (HeLa [4]): Active

Structure (SMILES): Cc1cc(-c2ccccc2)sc1C1=C(c2sc(-c3ccccc3)nc2C)C(F)(F)C(F)(F)C1(F)F
- Activity (HeLa [15]): inactive

Structure (SMILES): CC12N=C(c3ccccc3)SC1=C1C(=C3SC(c4ccccc4)=NC32C)C(F)(F)C(F)(F)C1(F)F (stereo not given)
- Activity (HeLa [4]): Active

The next lines start with results.

- KSV (DNA [1]): 1.6 10^3/M
- Activity (DNA [2]): Active
- Activity (DNA [3]): Active
Structure (SMILES): Cc1sc(-c2ccccc2)cc1C1=C(c2nc(-c3ccccc3)sc2C)C(F)(F)C(F)(F)C1(F)F

- KSV (DNA [1]): 1.6 10^3/M
- Activity (DNA [10]): Active
- Activity (DNA [11]): inactive
- Activity (DNA [12]): Active
- Activity (DNA [2]): Active
- Activity (DNA [3]): Active
Structure (SMILES): Cc1sc(-c2ccccc2)nc1C1=C(c2nc(-c3ccccc3)sc2C)C(F)(F)C(F)(F)C1(F)F
- Activity (HeLa [5]): inactive
- Activity (HeLa [6]): inactive
- Activity (HeLa [7]): inactive
- Activity (HeLa [8]): inactive
- Activity (HeLa [9]): inactive
- Activity (HeLa [13]): inactive
- Activity (HeLa [14]): inactive

- KSV (DNA [1]): 1.6 10^3/M
- Activity (DNA [2]): inactive
- Activity (DNA [3]): Active
Structure (SMILES): Cc1sc(-c2ccccc2)cc1C1=C(c2cc(-c3ccccc3)sc2C)C(F)(F)C(F)(F)C1(F)F
- Activity (HeLa [8]): inactive

- KSV (DNA [1]): 27 10^3/M
- Activity (DNA [2]): Active
- Activity (DNA [3]): Active
Structure (SMILES): CC12SC(c3ccccc3)=NC1=C1C(=C3N=C(c4ccccc4)SC32C)C(F)(F)C(F)(F)C1(F)F (stereo not given)
- Activity (HeLa [16]): Active
- Activity (HeLa [17]): Active
- Activity (HeLa [18]): Active
- Activity (HeLa [19]): Active
- Activity (HeLa [20]): Active
- Activity (HeLa [21]): Active
- Activity (HeLa [8]): Active
- Activity (HeLa [22]): Active
- Activity (HeLa [23]): Active
- Activity (HeLa [24]): Active
- Activity (HeLa [25]): Active
- Activity (HeLa [26]): Active
- Activity (HeLa [27]): Active

- KSV (DNA [1]): 27 10^3/M
- Activity (DNA [2]): inactive
- Activity (DNA [3]): Active
Structure (SMILES): CC12SC(c3ccccc3)=CC1=C1C(=C3C=C(c4ccccc4)SC32C)C(F)(F)C(F)(F)C1(F)F (stereo not given)
- Activity (HeLa [8]): inactive

- KSV (DNA [1]): 27 10^3/M
- Activity (DNA [2]): Active
- Activity (DNA [3]): Active
Structure (SMILES): C[C@]12SC(c3ccccc3)=CC1=C1C(=C3N=C(c4ccccc4)S[C@@]32C)C(F)(F)C(F)(F)C1(F)F
- Activity (HeLa [8]): Active
